Results: US20230115176A1 (Ra Pharmaceuticals, Inc., priority 2019, published 2023)
pIC50: −log10 of the molar value. Converted amounts (≈) assume the structure as drawn.

Target: T1, Human C5 (Homo sapiens, UniProt P01031)
T1 construct: purchased Complement Technology
Assay: Red blood cell (RBC) hemolysis assay, luminescent (Example 13, Table 22); note: 1.5% C5-depleted human serum
Format: cell-based
Settings: sheep EA cells, […] C5-depleted human serum, 0.5 nM human C5, 1 hour 37° C., luminescence
From the text: Compound CU0136 is a racemic mixture of Compound CU0186 and CU0187. Numbers in parenthesis following compound numbers indicate alternate enantiomers (as distinguished by retention time during chromatographical separation).

T1 sequence (P01031 19-1676): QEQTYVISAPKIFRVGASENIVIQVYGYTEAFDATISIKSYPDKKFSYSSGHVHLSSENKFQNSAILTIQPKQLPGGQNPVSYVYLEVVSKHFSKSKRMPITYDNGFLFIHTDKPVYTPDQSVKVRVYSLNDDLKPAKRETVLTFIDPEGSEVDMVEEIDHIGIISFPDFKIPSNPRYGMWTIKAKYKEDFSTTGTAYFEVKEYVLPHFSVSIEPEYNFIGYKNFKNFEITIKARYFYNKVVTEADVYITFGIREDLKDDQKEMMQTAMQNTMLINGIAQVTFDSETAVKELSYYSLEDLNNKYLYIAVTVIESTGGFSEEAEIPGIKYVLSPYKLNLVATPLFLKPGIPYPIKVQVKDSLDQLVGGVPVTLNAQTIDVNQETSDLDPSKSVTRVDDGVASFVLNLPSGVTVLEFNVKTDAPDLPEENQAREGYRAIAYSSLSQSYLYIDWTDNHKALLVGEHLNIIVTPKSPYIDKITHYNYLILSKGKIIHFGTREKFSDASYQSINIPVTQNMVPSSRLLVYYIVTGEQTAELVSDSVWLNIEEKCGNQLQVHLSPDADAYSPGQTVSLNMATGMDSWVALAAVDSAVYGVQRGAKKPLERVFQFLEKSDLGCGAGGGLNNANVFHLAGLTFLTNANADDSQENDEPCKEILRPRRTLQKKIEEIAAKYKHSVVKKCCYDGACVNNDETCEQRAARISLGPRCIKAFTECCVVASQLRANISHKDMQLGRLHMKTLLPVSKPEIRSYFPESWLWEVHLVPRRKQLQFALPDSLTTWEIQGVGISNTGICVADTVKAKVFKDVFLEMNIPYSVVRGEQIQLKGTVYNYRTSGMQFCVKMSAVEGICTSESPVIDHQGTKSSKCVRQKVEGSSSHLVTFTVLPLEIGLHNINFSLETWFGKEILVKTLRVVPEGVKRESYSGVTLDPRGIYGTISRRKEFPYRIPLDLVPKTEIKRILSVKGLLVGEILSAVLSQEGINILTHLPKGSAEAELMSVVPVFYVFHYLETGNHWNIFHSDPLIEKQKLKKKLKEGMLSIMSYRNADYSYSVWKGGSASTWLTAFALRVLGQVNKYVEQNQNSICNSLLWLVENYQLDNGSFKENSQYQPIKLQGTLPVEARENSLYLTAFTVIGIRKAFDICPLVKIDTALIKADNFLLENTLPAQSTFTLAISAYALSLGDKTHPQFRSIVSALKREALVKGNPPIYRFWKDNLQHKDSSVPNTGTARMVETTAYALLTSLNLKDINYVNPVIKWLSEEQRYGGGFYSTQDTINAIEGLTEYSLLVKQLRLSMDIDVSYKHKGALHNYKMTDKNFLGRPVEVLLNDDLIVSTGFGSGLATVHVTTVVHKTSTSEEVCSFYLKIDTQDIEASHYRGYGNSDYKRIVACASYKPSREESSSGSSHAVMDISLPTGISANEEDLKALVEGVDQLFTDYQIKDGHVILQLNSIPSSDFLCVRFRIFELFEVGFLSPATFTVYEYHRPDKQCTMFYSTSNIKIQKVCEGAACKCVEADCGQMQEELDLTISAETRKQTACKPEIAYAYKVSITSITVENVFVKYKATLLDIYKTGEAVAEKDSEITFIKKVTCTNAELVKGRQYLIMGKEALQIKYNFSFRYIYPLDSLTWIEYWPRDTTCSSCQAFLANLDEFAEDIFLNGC

SMILES	pIC50
COc1cc(CC(=O)N(C)C)ccc1CN1CCCN(c2ccc(OC)c(OCCC[C@H]3C[C@H]3C)c2)C1=O (racemic) [CU0226]	7.80
CCCCCOc1cc(N2CCCN(Cc3ccc(CC(=O)N4CCO[C@@H](CN(C)C)C4)cc3OC)C2=O)ccc1OC (stereo in doubt) [CU0186]	7.73
CCCCCOc1cc(N2CCCN(Cc3ccc(CC(=O)N4CCO[C@H](CN(C)C)C4)cc3OC)C2=O)ccc1OC (stereo in doubt) [CU0187]	7.83
COc1cc(CC(=O)NC2CCN(C(C)C)CC2)ccc1CN1CCCN(c2ccc(OC)c(OCCCC(C)(F)F)c2)C1=O [CU0141]	7.88
COc1ccc(F)cc1CN1CCCN(c2ccc(OC)c(OCCC3CCC3)c2)C1=O [CU0154]	7.65
CCCCCOc1cc(N2CCCN(Cc3ccc(Cc4ncco4)cc3OC)C2=O)ccc1OC [CU0208]	7.23
CCCCCOc1cc(N2CCCN(Cc3ccc(Cc4nnn[nH]4)cc3OC)C2=O)ccc1OC [CU0209]	7.26
CCCCCOc1cc(N2CCCN(Cc3ccc(CC#N)cc3OC)C2=O)ccc1OC [CU0210]	7.48
COc1ccc(F)cc1CN1CCCN(c2ccc(OC)c(OCCc3ccccc3C)c2)C1=O [CU0215]	7.47
COc1ccc(F)cc1CN1CCCN(c2ccc(OC)c(OCCC3CCCCC3)c2)C1=O [CU0216]	7.57
COc1ccc(F)cc1CN1CCCN(c2ccc(OC)c(OCCCC(C)C)c2)C1=O [CU0217]	7.74
COc1ccc(F)cc1CN1CCCN(c2ccc(OC)c(OCCc3ccc(C)cc3)c2)C1=O [CU0219]	6.66
COc1ccc(F)cc1CN1CCCN(c2ccc(OC)c(OCCc3cccc(C(F)(F)F)c3)c2)C1=O [CU0220]	6.60
COc1ccc(F)cc1CN1CCCN(c2ccc(OC)c(OCc3cccc(OC(F)(F)F)c3)c2)C1=O [CU0221]	6.13
COc1ccc(F)cc1CN1CCCN(c2ccc(OC)c(OCCCC3CCCCC3)c2)C1=O [CU0222]	7.16
COc1ccc(F)cc1CN1CCCN(c2ccc(OC)c(OCc3cccc(C(F)(F)F)c3)c2)C1=O [CU0223]	6.40
C/C=C\CCCOc1cc(N2CCCN(Cc3cc(F)ccc3OC)C2=O)ccc1OC [CU0225]	7.54
COc1cccc(COc2cc(N3CCCN(Cc4cc(F)ccc4OC)C3=O)ccc2OC)c1 [CU0227]	6.44
CCCCCOc1cc(N2CCCN(Cc3ccnc4c3ccn4CC(=O)N3CCCOCC3)C2=O)ccc1OC [CU0228]	7.66

SMILES	pIC50
CCCCCOc1cc(N2CCCN(Cc3ccc(C)c4c3ccn4CC(=O)N(C)C)C2=O)ccc1OC [CU0229]	7.05
CCCCCOc1cc(N2CCCN(Cc3ccc(F)c4c3ccn4CC(=O)N(C)C)C2=O)ccc1OC [CU0230]	7.22
CCCCCOc1cc(N2CCCN([C@@H](C)c3cccc4c3ccn4CC(=O)N(C)C)C2=O)ccc1OC [CU0233]	5.37
CCCCCOc1cc(N2CCCN(Cc3cc(C)cc4c3ccn4CC(=O)N(C)C)C2=O)ccc1OC [CU0236]	6.69
CCCCCOc1cc(N2CCCN(Cc3cc(F)cc4c3ccn4CC(=O)N(C)C)C2=O)ccc1OC [CU0237]	7.36
CCCCCOc1cc(N2CCCN(Cc3cccc4c3cc(C)n4CC(=O)N(C)C)C2=O)ccc1OC [CU0238]	7.21
COc1ccc(N2CCCN(Cc3cccc4[nH]ccc34)C2=O)cc1OCCCC(C)(F)F [CU0240]	7.37
CCCCCOc1cc(N2CCCN(Cc3cccc4c3ccn4C3CCN(C4CC4)C3=O)C2=O)ccc1OC (stereo not shown) [CU0241]	7.97
CCCCCOc1cc(N2CCCN(Cc3cccc4c3ccn4CC(=O)N(C)C3CCN(CC)C3)C2=O)ccc1OC (stereo not shown) [CU0242]	8.09
CCCCCOc1cc(N2CCCN(Cc3ccnc4c3ccn4CC3CCCO3)C2=O)ccc1OC (stereo not shown) [CU0248]	7.00
CCCCCOc1cc(N2CCCN(Cc3ccnc4c3ccn4CCC3CCOCC3)C2=O)ccc1OC [CU0249]	6.41
CCCCCOc1cc(N2CCCN(Cc3ccnc4c3ccn4CCN3CCOC3=O)C2=O)ccc1OC [CU0250]	6.66
CCCCCOc1cc(N2CCCN(Cc3ccnc4c3ccn4CC3=NCCN3C)C2=O)ccc1OC [CU0251]	7.47
COc1ccc(N2CCCN(Cc3ccnc4c3ccn4CC(=O)N(C)C)C2=O)cc1OCc1ccccc1 [CU0252]	6.08
COc1ccc(N2CCCN(Cc3ccnc4c3ccn4CC(=O)N(C)C)C2=O)cc1OCC[C@@H]1C[C@@H]2CC[C@H]1C2 [CU0253]	7.38
CCCCCOc1cc(N2CCCN(Cc3ccnc4c3ccn4CCN3CCCC3)C2=O)ccc1OC [CU0254]	7.73
COc1ccc(N2CCCN(Cc3ccnc4c3ccn4CC(=O)N(C)C)C2=O)cc1OCCC1CCCC1 [CU0259]	7.12
COc1ccc(N2CCCN(Cc3ccnc4c3ccn4CC(=O)N(C)C)C2=O)cc1OCCCC(C)(F)F [CU0262]	7.46

Tested on: not listed separately
Assay: Kinetic solubility in PBS pH 7.4, HPLC-UV (Example 21, Table 27)
Format: physicochemical
Settings: phosphate buffered saline, aqueous buffer, kinetic from dmso stock, 0.5 M PBS, shaken minimum 24 h at approximately 25° C., HPLC-UV 270 nm
Experimental: Compounds were analyzed for kinetic solubility values using a standard kinetic solubility assay format. First, test compounds were dissolved in DMSO (Aldrich Chemical Co., Milwaukee, Wis., USA) at a concentration of 0.010 mol/L and used to prepare standard calibrators in DMSO solution. 500.0 μM, 250.0 μM, 125.0 μM, 62.5 μM, 31.2 μM, and 15.6 μM standards were prepared in a Greiner UV-Star clear V-bottom 96-well plate (Greiner-Bio One, Germany) for generating a standard curve. Using Alfa Aesar's Sodium phosphate, 0.2 M buffer solution, pH 7.4 (Alfa Aesar, Haverhill, Mass., USA), aqueous phosphate buffered saline (PBS) was prepared by diluting with Milli-Q water for a final concentration of 0.05 M. The pH of the solution was adjusted to 7.4±0.1 using 0.1 M hydrochloric acid (Fisher Scientific Waltham, Mass., USA) or 0.1 M aqueous sodium hydroxide (Fisher Scientific Waltham, Mass., USA).
10 μL of 0.010 mol/L DMSO test compound stock solutions were pipetted to separate 1.5 mL centrifuge tubes in triplicate. To these tubes, 190 μl of 0.05 M PBS was added. Each tube was gently vortexed for 5 sec. The tubes were shaken for a minimum of 24 h at approximately 25° C. After shaking, the solutions were transferred to 0.5 mL centrifuge filter tubes (MilliporeSigma, Burlington, Mass., USA) and centrifuged at 10,000 rpm for 5 min. After centrifugation, supernatants were collected and used for compound concentration analysis.
Compound concentrations in each solution were determined using high pressure liquid chromatography (HPLC) with ultraviolet (UV) detection and comparison with external standards. For HPLC, a Waters Acquity CSH Phenyl-Hexyl column (2.1 mm×50 mm, 1.7 μm) was used together with a generic gradient method on a Waters H-class system equipped with a diode array detector: Solvent A=0.1% formic acid in water, Solvent B=0.1% formic acid in acetonitrile (MilliporeSigma, Burlington, Mass., USA), flow=0.65 mL/min, (t=0 min: 95% A-5% B, t=4.75 min: 0% A-100% B, t=4.85 min: 0% A-100% B, t=4.86 min: 95% A-5% B, t=5 min: 95% A-5% B). UV quantifications were performed at 270 nm. Solution concentrations were calculated using Microsoft Excel.

SMILES	solubility kinetic [µM]
COc1cc(CC(=O)N(C)C)ccc1CN1CCCN(c2ccc(OC)c(OCCC[C@H]3C[C@H]3C)c2)C1=O (racemic) [CU0226]	286 (≈ 150 µg/mL)
COc1ccc(N2CCCN(Cc3ccnc4c3ccn4CC(=O)N(C)C)C2=O)cc1OCCC[C@H]1C[C@@H]1C (racemic) [CU0752]	75 (≈ 40 µg/mL)
CCCCCOc1cc(N2CCCN(Cc3ccc(CC(=O)N4CCO[C@@H](CN(C)C)C4)cc3OC)C2=O)ccc1OC (stereo in doubt) [CU0186]	348 (≈ 208 µg/mL)
CCCCCOc1cc(N2CCCN(Cc3ccc(CC(=O)N4CCO[C@H](CN(C)C)C4)cc3OC)C2=O)ccc1OC (stereo in doubt) [CU0187]	417 (≈ 249 µg/mL)
COc1cc(CC(=O)NC2CCN(C(C)C)CC2)ccc1CN1CCCN(c2ccc(OC)c(OCCCC(C)(F)F)c2)C1=O [CU0141]	366 (≈ 231 µg/mL)
COc1ccc(F)cc1CN1CCCN(c2ccc(OC)c(OCCC3CCC3)c2)C1=O [CU0154]	58 (≈ 25.7 µg/mL)
CCCCCOc1cc(N2CCCN(Cc3ccc(CNC(=O)c4ccnnc4)cc3OC)C2=O)ccc1OC [CU0503]	62 (≈ 34 µg/mL)
CCCCCOc1cc(N2CCCN(Cc3ccc(CNC(=O)c4cccnn4)cc3OC)C2=O)ccc1OC [CU0505]	60 (≈ 32.9 µg/mL)
COc1ccc(N2CCCN(Cc3ccnc4c3c(Cl)cn4CC(=O)N3CCNC(=O)C3)C2=O)cc1OCCCC1CC1 [CU0522]	< 10
CCCCCOc1cc(N2CCCN(Cc3ccc(CNC(=O)c4cnnn4C)cc3OC)C2=O)ccc1OC [CU0544]	50 (≈ 27.5 µg/mL)
COc1cc(CNC(C)=O)ccc1CN1CCCN(c2ccc(OC)c(OCCCC3CCC3)c2)C1=O [CU0546]	< 10
CCCCCOc1cc(N2CCCN(Cc3ccnc4c3c(Cl)cn4CCN3CCS(=O)(=O)CC3)C2=O)ccc1OC [CU0551]	12 (≈ 7.42 µg/mL)
CCCCCOc1cc(N2CCCN(Cc3ccnc4c3c(Cl)cn4CC(=O)NC(C)C)C2=O)ccc1OC [CU0553]	12 (≈ 6.67 µg/mL)
CCCCCOc1cc(N2CCCN(Cc3ccnc4c3c(Cl)cn4Cc3nnn(C)n3)C2=O)ccc1OC [CU0556]	< 10
CCCCCOc1cc(N2CCCN(Cc3ccnc4c3c(Cl)cn4CCOCCNC(C)=O)C2=O)ccc1OC [CU0559]	< 10
CCCCCOc1cc(N2CCCN(Cc3ccnc4c3c(Cl)cn4CCOC(=O)N3CCS(=O)(=O)CC3)C2=O)ccc1OC [CU0563]	19 (≈ 12.6 µg/mL)
CCCCCOc1cc(N2CCCN(Cc3ccnc4c3c(Cl)cn4CCN3CCCC3)C2=O)ccc1OC [CU0564]	249 (≈ 138 µg/mL)
CCCCCOc1cc(N2CCCN(Cc3ccnc4c3c(Cl)cn4Cc3nnnn3C)C2=O)ccc1OC [CU0570]	< 10
CCCCCOc1cc(N2CCCN(Cc3ccnc4c3c(Cl)cn4CCN3CCCS3(=O)=O)C2=O)ccc1OC [CU0577]	13 (≈ 7.85 µg/mL)
COc1ccc(N2CCCN(Cc3ccnc4c3c(Cl)cn4CC(=O)N(C)C)C2=O)cc1OCCCC(C)(C)C [CU0595]	< 10
CCCCCOc1cc(N2CCCN(Cc3ccc(C4CNC(=O)O4)cc3OC)C2=O)ccc1OC (stereo not shown) [CU0611]	170 (≈ 84.6 µg/mL)
CCCCCOc1cc(N2CCCN(Cc3ccc(Cc4cnccn4)cc3OC)C2=O)ccc1OC [CU0614]	101 (≈ 51 µg/mL)
CCCCCOc1cc(N2CCCN(Cc3ccc(C4CN(C)C(=O)O4)cc3OC)C2=O)ccc1OC (stereo not shown) [CU0618]	179 (≈ 91.6 µg/mL)
CCCCCOc1cc(N2CCCN(Cc3ccnc4c3c(Cl)cn4C(C)C(=O)N3CN(C(C)C)C3)C2=O)ccc1OC (stereo not shown) [CU0620]	275 (≈ 168 µg/mL)
CCCCCOc1cc(N2CC[C@H](C)N(Cc3cccc4[nH]cc(Cl)c34)C2=O)ccc1OC [CU0623]	364 (≈ 171 µg/mL)
COc1cc(CCNC2CCN(C)C2=O)ccc1CN1CCCN(c2ccc(OC)c(OCCCC3CC3)c2)C1=O (stereo not shown) [CU0643]	> 500
CCCCCOc1cc(N2CCCN(Cc3ccnc4c3ccn4[C@@H]3CCN(C)C3=O)C2=O)ccc1OC [CU0667]	139 (≈ 72.2 µg/mL)
CCCCCOc1cc(N2CCCN(Cc3ccc(Cc4ccccn4)cc3OC)C2=O)ccc1OC [CU0672]	440 (≈ 222 µg/mL)
CCCCCOc1cc(N2CCCN(Cc3cncc4c3c(Cl)cn4CC(=O)N(C)C)C2=O)ccc1OC [CU0673]	11 (≈ 5.96 µg/mL)
CCCCCOc1cc(N2CCCN(Cc3ccc(CNC(=O)c4cnccn4)cc3OC)C2=O)ccc1OC [CU0677]	71 (≈ 38.9 µg/mL)
